Results from US20240383913A1, “THIOPHENE RING COMPOUND, PREPARATION METHOD THEREFOR AND APPLICATION THEREOF” (CENTER FOR EXCELLENCE IN MOLECULAR CELL SCIENCE, CHINESE …, priority 2021, published 2024).

What was measured:
[1] = tested on: restraint-induced depression-like behaviors; test: Forced swimming test after 5-hour restraint; format: in vivo, C57B6 male mice
Description: The experimental animals were C57B6 male mice, n=8 in each group. 5-hour restraint were used to develop depression-like behavioral representations of the mice, then the effects of the compounds on their “depression-like” behaviors were measured according to behavioral performance in tail suspension test and forced swimming test. The specific experimental procedures were as follows: Firstly, the mice were restrained using a mouse fixator for tail vein injection. During the restraint process, all movement abilities of the mice were restricted under the condition of introducing minimal pain to the mice. Compounds were administered intraperitoneally twice, before and after restraint, respectively. After compound administration, the mice returned to the cage to recover for 30 minutes. […]
Forced swimming test: the mice were placed in a 5 L glass beaker filled with water, with the water level at 15 cm height, and the mice were forced to swim continuously in the beaker for 6 minutes. […] The duration of the immobility behavior was recorded intermittently for the remaining 4 minutes, and the immobility behavior of the mice was defined as: the mice float passively on the surface of the water without movement, with only small local movements required to maintain afloat. The duration of this immobility was measured to assess the level of behavioral despair in the mice. […]

dopamine D2 receptors = dopamine D2 receptors (Homo sapiens (Human), UniProt P14416); test: Affinity for dopamine D2 receptors, radioligand competition with [3H]-Methylspiperone; format: binding; details: 293T membrane transiently expressing D2
Sequence of dopamine D2 receptors (P14416 whole entry): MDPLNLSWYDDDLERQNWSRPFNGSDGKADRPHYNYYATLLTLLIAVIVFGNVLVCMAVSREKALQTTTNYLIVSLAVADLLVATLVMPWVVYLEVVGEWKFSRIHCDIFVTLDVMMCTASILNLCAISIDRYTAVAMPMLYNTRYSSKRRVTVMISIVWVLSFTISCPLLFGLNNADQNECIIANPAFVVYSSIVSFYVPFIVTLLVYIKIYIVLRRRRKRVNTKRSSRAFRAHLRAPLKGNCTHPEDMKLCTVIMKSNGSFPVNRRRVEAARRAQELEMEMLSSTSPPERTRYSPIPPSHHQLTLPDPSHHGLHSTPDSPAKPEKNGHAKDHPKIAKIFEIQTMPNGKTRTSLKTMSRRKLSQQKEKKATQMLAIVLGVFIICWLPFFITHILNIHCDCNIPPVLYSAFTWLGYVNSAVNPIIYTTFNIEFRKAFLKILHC
Description: The affinity of the compounds of the present disclosure for the dopamine D2 receptors was determined by the method of radioligand competition experiment. In the first step, a cell membrane component containing specific dopamine D2 receptors was prepared. A 10 cm culture dish was used for transfection with 10 ng of the dopamine D2 receptors and 40 μL of polyethylenimine (PEI hereafter). After 48 hours, the 10 cm culture dish was taken out from the cell culture incubator and the cultured cells had expressed the dopamine D2 receptors. A vacuum pump was used to suck off the culture medium, 3 mL of lysis buffer was added to each culture dish, and the cells were placed in a 4° C. cold room for 10 minutes. After the cells were detached, the cells were transferred to a 15 mL centrifuge tube and centrifuged at 1500 rpm for 5 minutes at 4° C., and the supernatant was discarded. The cell pellet was transferred to a tissue homogenizer, and 3 mL of lysis buffer was added and fully ground until the cells were broken. Then, cell suspension was equally aliquoted into several EP tubes, centrifuged at 12000 rpm for 5 minutes at 4° C., and the supernatant was discarded. The precipitate was the cell membrane component containing the dopamine D2 receptors. […] First, a standard binding buffer was added to the cell membrane component containing the dopamine D2 receptors, and the cell membrane was disrupted and resuspended with an electric tissue homogenizer. 30 μL of membrane protein suspension was added to each well of a 96-well plate. Then, 30 μL of different drugs were added to the 96-well plate sequentially from bottom to top to ensure that the final drug concentrations were 10^−5 M, 10^−6 M, 10^−7 M, 10^−8 M, 10^−9 M, and 0 M, with two replicates per treatment. Next, 30 μL of [3H]-Methylspiperone was added to each well of the 96-well plate. The plate was incubated for 2 hours at room temperature in the dark. Detection was conducted. The machine readout value reflected the amount of [3H]-Methylspiperone bound on the membrane, and after further data processing, the affinity Ki values of different compounds for the dopamine D2 receptors were obtained.

[2] = tested on: hyperlocomotion of the mice induced by MK801; test: Open field test, hyperlocomotion induced by MK801; format: in vivo, C57B6 male mice; details: for Distance (cm) travelled in 45 minutes: 0-45 minute interval after MK-801; for Distance travelled (cm): 5-minute bin
Description: Experimental method: The experimental animals were C57B6 male mice, n=8 in each group. This model used C57B6 mice as experimental animals. Hyperlocomotion of the mice in open field was induced by acute injection of a NMDA antagonist MK801. and modeled to test the inhibitory effect of different compounds on hyperkinesia phenotype induced by MK801. All mouse behavior experiments were carried out during the light period, and the whole process was recorded by the camera and locomotive data were tracked and analyzed by behavioral tracking software. The compounds were administered intraperitoneally. Immediately after the injection, the mice entered the open field and their movement trajectories were recorded by the camera. After 30 minutes, the mice received 0.2 mg/kg of MK801 by intraperitoneal injection and returned to the open field immediately after administration and the movement trajectories were further recorded for 120 minutes. The accumulative travelled distance of the mice was counted in a 5-minute bin. Data statistics were performed using Student-t-test analysis, *p<0.05, ** p<0.01, *** p<0.001, **** p<0.0001.

Compound: CN(C)C(=O)N[C@H]1CC[C@H](CCN2CCN3c4cccc5scc(c45)CC3C2)CC1 (single isomer, unassigned; (-)) [(−)-I-27]
- Immobility time (seconds), forced swimming test ([1]; (−)-I-27 0.025 mg/kg i.p.): 91.83 ± 6.80 s
- Immobility time (seconds), forced swimming test ([1]; (−)-I-27 0.1 mg/kg i.p.): 56.89 ± 4.80 s
- Ki (dopamine D2 receptors): 120 nM
- Inhibition of MK801-induced hyperlocomotion ([2]; 0.4/0.2/0.1 mg/kg intraperitoneally, MK801 0.2 mg/kg): significantly inhibit hyperlocomotion
- Distance (cm) travelled in 45 minutes ([2]; (−)-I-27 0.1 mg/kg i.p. + MK801 0.2 mg/kg): 6882.3 cm
- Distance travelled (cm) ([2]; (−)-I-27 0.1 mg/kg i.p. + MK801 0.2 mg/kg, 5 minutes after MK801): 420.96 ± 66.32 cm
- Distance travelled (cm) ([2]; (−)-I-27 0.1 mg/kg i.p. + MK801 0.2 mg/kg, 10 minutes after MK801): 405.21 ± 55.18 cm
- Distance travelled (cm) ([2]; (−)-I-27 0.1 mg/kg i.p. + MK801 0.2 mg/kg, 15 minutes after MK801): 482.21 ± 74.21 cm
- Distance travelled (cm) ([2]; (−)-I-27 0.1 mg/kg i.p. + MK801 0.2 mg/kg, 20 minutes after MK801): 708.05 ± 61.74 cm
- Distance travelled (cm) ([2]; (−)-I-27 0.1 mg/kg i.p. + MK801 0.2 mg/kg, 25 minutes after MK801): 895.54 ± 92.18 cm
- Distance travelled (cm) ([2]; (−)-I-27 0.1 mg/kg i.p. + MK801 0.2 mg/kg, 30 minutes after MK801): 1035.67 ± 122.77 cm
- Distance travelled (cm) ([2]; (−)-I-27 0.1 mg/kg i.p. + MK801 0.2 mg/kg, 35 minutes after MK801): 1075.2 ± 123.55 cm
- Distance travelled (cm) ([2]; (−)-I-27 0.1 mg/kg i.p. + MK801 0.2 mg/kg, 45 minutes after MK801): 942.97 ± 82.87 cm
- Distance travelled (cm) ([2]; (−)-I-27 0.1 mg/kg i.p. + MK801 0.2 mg/kg, 50 minutes after MK801): 985.86 ± 96.6 cm
- Distance travelled (cm) ([2]; (−)-I-27 0.1 mg/kg i.p. + MK801 0.2 mg/kg, 55 minutes after MK801): 925.44 ± 118.24 cm
- Distance travelled (cm) ([2]; (−)-I-27 0.1 mg/kg i.p. + MK801 0.2 mg/kg, 60 minutes after MK801): 937.96 ± 121.52 cm
- Distance travelled (cm) ([2]; (−)-I-27 0.1 mg/kg i.p. + MK801 0.2 mg/kg, 65 minutes after MK801): 931.08 ± 108.91 cm
- Distance travelled (cm) ([2]; (−)-I-27 0.1 mg/kg i.p. + MK801 0.2 mg/kg, 70 minutes after MK801): 839.2 ± 104.29 cm
- Distance travelled (cm) ([2]; (−)-I-27 0.1 mg/kg i.p. + MK801 0.2 mg/kg, 75 minutes after MK801): 773.65 ± 117.99 cm
- Distance travelled (cm) ([2]; (−)-I-27 0.1 mg/kg i.p. + MK801 0.2 mg/kg, 80 minutes after MK801): 691.57 ± 121.79 cm
- Distance travelled (cm) ([2]; (−)-I-27 0.1 mg/kg i.p. + MK801 0.2 mg/kg, 85 minutes after MK801): 682.97 ± 115.06 cm
- Distance travelled (cm) ([2]; (−)-I-27 0.1 mg/kg i.p. + MK801 0.2 mg/kg, 90 minutes after MK801): 611.63 ± 112.71 cm
- Distance travelled (cm) ([2]; (−)-I-27 0.1 mg/kg i.p. + MK801 0.2 mg/kg, 95 minutes after MK801): 432.95 ± 85.66 cm
- Distance travelled (cm) ([2]; (−)-I-27 0.1 mg/kg i.p. + MK801 0.2 mg/kg, 100 minutes after MK801): 405.27 ± 69.97 cm
- Distance travelled (cm) ([2]; (−)-I-27 0.1 mg/kg i.p. + MK801 0.2 mg/kg, 105 minutes after MK801): 391.87 ± 78.94 cm
- Distance travelled (cm) ([2]; (−)-I-27 0.1 mg/kg i.p. + MK801 0.2 mg/kg, 110 minutes after MK801): 351.08 ± 112.22 cm
- Distance travelled (cm) ([2]; (−)-I-27 0.1 mg/kg i.p. + MK801 0.2 mg/kg, 115 minutes after MK801): 310.3 ± 83.61 cm
- Distance travelled (cm) ([2]; (−)-I-27 0.1 mg/kg i.p. + MK801 0.2 mg/kg, 120 minutes after MK801): 339.28 ± 95.35 cm
- Distance travelled (cm) ([2]; (−)-I-27 0.1 mg/kg i.p., 0 minutes, before MK801): 446.62 ± 49.69 cm
- Distance travelled (cm) ([2]; (−)-I-27 0.1 mg/kg i.p., −5 minutes, before MK801): 473.13 ± 38.54 cm
- Distance travelled (cm) ([2]; (−)-I-27 0.1 mg/kg i.p., −10 minutes, before MK801): 479.62 ± 34 cm
- Distance travelled (cm) ([2]; (−)-I-27 0.1 mg/kg i.p., −15 minutes, before MK801): 522.39 ± 41.17 cm
- Distance travelled (cm) ([2]; (−)-I-27 0.1 mg/kg i.p., −20 minutes, before MK801): 606.78 ± 43.01 cm
- Distance travelled (cm) ([2]; (−)-I-27 0.1 mg/kg i.p., −25 minutes, before MK801): 827.15 ± 76.34 cm
- Distance (cm) travelled in 45 minutes ([2]; (−)-I-27 0.2 mg/kg i.p. + MK801 0.2 mg/kg): 5849.12 cm
- Distance travelled (cm) ([2]; (−)-I-27 0.2 mg/kg i.p. + MK801 0.2 mg/kg, 5 minutes after MK801): 527.23 ± 55.9 cm
- Distance travelled (cm) ([2]; (−)-I-27 0.2 mg/kg i.p. + MK801 0.2 mg/kg, 10 minutes after MK801): 353.73 ± 61.92 cm
- Distance travelled (cm) ([2]; (−)-I-27 0.2 mg/kg i.p. + MK801 0.2 mg/kg, 15 minutes after MK801): 415.6 ± 122.18 cm
- Distance travelled (cm) ([2]; (−)-I-27 0.2 mg/kg i.p. + MK801 0.2 mg/kg, 20 minutes after MK801): 555.77 ± 141.94 cm
- Distance travelled (cm) ([2]; (−)-I-27 0.2 mg/kg i.p. + MK801 0.2 mg/kg, 25 minutes after MK801): 775.2 ± 174.1 cm
- Distance travelled (cm) ([2]; (−)-I-27 0.2 mg/kg i.p. + MK801 0.2 mg/kg, 30 minutes after MK801): 815.56 ± 168.41 cm
- Distance travelled (cm) ([2]; (−)-I-27 0.2 mg/kg i.p. + MK801 0.2 mg/kg, 35 minutes after MK801): 844.11 ± 141.81 cm
- Distance travelled (cm) ([2]; (−)-I-27 0.2 mg/kg i.p. + MK801 0.2 mg/kg, 40 minutes after MK801): 771.62 ± 111.37| cm
- Distance travelled (cm) ([2]; (−)-I-27 0.2 mg/kg i.p. + MK801 0.2 mg/kg, 45 minutes after MK801): 790.3 ± 145.96 cm
- Distance travelled (cm) ([2]; (−)-I-27 0.2 mg/kg i.p. + MK801 0.2 mg/kg, 50 minutes after MK801): 741.75 ± 130.61 cm
- Distance travelled (cm) ([2]; (−)-I-27 0.2 mg/kg i.p. + MK801 0.2 mg/kg, 55 minutes after MK801): 547.84 ± 71.53 cm
- Distance travelled (cm) ([2]; (−)-I-27 0.2 mg/kg i.p. + MK801 0.2 mg/kg, 60 minutes after MK801): 707.09 ± 102.86 cm
- Distance travelled (cm) ([2]; (−)-I-27 0.2 mg/kg i.p. + MK801 0.2 mg/kg, 65 minutes after MK801): 653.46 ± 142.7 cm
- Distance travelled (cm) ([2]; (−)-I-27 0.2 mg/kg i.p. + MK801 0.2 mg/kg, 70 minutes after MK801): 449.29 ± 121.61 cm
- Distance travelled (cm) ([2]; (−)-I-27 0.2 mg/kg i.p. + MK801 0.2 mg/kg, 75 minutes after MK801): 564.58 ± 153.01 cm
